Earlier results, collected in paper PMC12067266 (Proceedings of the National Academy of Sciences of the …, 2025).

Test system: KCa3.1
Details: read-out: KCa3.1 IC50; ref [21]–[23], [49], [50]

IC50 [nM] | Structure (SMILES)
9 | O=C1CSc2ccccc2N1Cc1cccc(C(F)(F)F)c1 [NS6180]
11 | NC(=O)C(c1ccccc1)(c1ccc(F)cc1)c1ccc(F)cc1 [Senicapoc]

Structure (SMILES) | IC50 [nM]
Clc1ccccc1C(c1ccccc1)(c1ccccc1)n1cccn1 [TRAM-34] | […]
